SMILES strings stand for the structures. In brackets after ≈: the same amount, converted by molar mass.

Assay in all cases: Antibacterial activity test (agar dilution MIC)
Holding throughout (assay type): cell-based

Assay [1] deals with Streptococcus pneumoniae TH-662. To be noted: TH662; test bacterium D = Streptococcus pneumoniae TH-662; blood agar medium, 37° C., about 20 hours; read-out: Minimum inhibitory concentration (MIC). Here is the method:
(§1) In vitro antibacterial activities of the compounds of Examples 13, 28, 35, 43, 53 to 55, 64, 70, 84, 90, 94, 95, 108, 128, and 129 were measured as follows by referring to the standard method of the Japanese Society of Chemotherapy (Chemotherapy, Vol. 29, pp. 76-79, 1981). The antibacterial activity of midecamycin (MDM) was similarly measured for comparison.
(§2) Using each solution of the test substance prepared in methanol at a concentration of […], 2-fold serial dilutions were prepared by using methanol. Each of the prepared solutions of the test substances was put into a petri dish in a volume of 200 μl, added with 10 ml of agar medium for sensitivity measurement added with 5% horse sterile defibrinated blood, 15 μg/ml of β-nicotinamide-adenine dinucleotide, and 2.5 μg/ml of Hemin, and mixed for dilution to prepare an agar plate containing a test substance. A predetermined volume of a liquid medium for sensitivity measurement, prepared so as to contain a given number of test bactera, was inoculated on the agar plate containing a test substance by using a micro planter (Sakuma Seisakusho), and after the inoculation, the bacteria were cultured at 37° C. for about 20 hours. After the culture, presence or absence of growth of the test bacteria on the plate was observed by visual inspection, and the minimum concentration at which growth was not observed was determined as the minimum inhibitory concentration (MIC) of the test sustance.

In assay [2] the test system is Streptococcus pyogenes Cook. Particulars: test bacterium E = Streptococcus pyogenes Cook; blood agar medium, 37° C., about 20 hours; read-out: Minimum inhibitory concentration (MIC). Here is the method:
as §1, §2

Assay [3] relates to Staphylococcus aureus 209P JC-1. Particulars: test bacterium A = Staphylococcus aureus 209P JC-1; blood agar medium, 37° C., about 20 hours; read-out: Minimum inhibitory concentration (MIC). Here is the method:
as §1, §2

In assay [4] the test system is Streptococcus pneumoniae DP1 TypeI. To be noted: DP1TYPEI; test bacterium B = Streptococcus pneumoniae DP1 TypeI; blood agar medium, 37° C., about 20 hours; read-out: Minimum inhibitory concentration (MIC). Here is the method: as §1, §2
Assay [5] relates to Streptococcus pneumoniae IP692. Particulars: test bacterium C = Streptococcus pneumoniae IP692; blood agar medium, 37° C., about 20 hours; read-out: Minimum inhibitory concentration (MIC). Here is the method:
as §1, §2

For assay [6], the system named is Moraxella catarrhalis W-0506. To be noted: W0506; test bacterium F = Moraxella catarrhalis W-0506; blood agar medium, 37° C., about 20 hours; read-out: Minimum inhibitory concentration (MIC). Here is the method: as §1, §2
Assay [7] concerns Haemophilus influenzae 9334. To be noted: test bacterium G = Haemophilus influenzae 9334; blood agar medium, 37° C., about 20 hours; read-out: Minimum inhibitory concentration (MIC). As to the method:
as §1, §2

Regarding `CCC(=O)O[C@@H]1CC(=O)OCCC(/C=C/Cc2ccnc3ccccc23)CN(C)C[C@H](O)[C@H](C)C[C@H](CC=O)[C@H](O[C@@H]2OC(C)[C@@H](O[C@H]3CC(C)(O)[C@@H](OC(=O)CC)C(C)O3)C(N(C)C)C2O)[C@H]1OC` (single isomer, unassigned) [Example 54], the MIC in assay [1] was determined as 8 µg/mL (≈ 8.11 µM); in assay [2] it was 0.03 µg/mL (≈ 0.0304 µM); in assay [3] it was 0.13 µg/mL (≈ 0.132 µM); in assay [4] it was 0.015 µg/mL (≈ 0.0152 µM); in assay [5], 0.03 µg/mL (≈ 0.0304 µM); in assay [6], 1 µg/mL (≈ 1.01 µM).

Regarding `CCC(=O)OC1C(C)O[C@@H](O[C@@H]2C(C)O[C@@H](O[C@H]3[C@@H](CC=O)C[C@@H](C)[C@@H](O)CN(CCCCc4ccccc4)CCCNC(=O)C[C@@H](OC(=O)CC)[C@@H]3OC)C(O)C2N(C)C)CC1(C)OC(C)=O` (some centres unmarked) [Example 13], the MIC in assay [1] was 16 µg/mL (≈ 16.6 µM); in assay [7] it was 0.5 µg/mL (≈ 0.519 µM); in assay [2] it was 0.25 µg/mL (≈ 0.259 µM); in assay [3] it was 0.25 µg/mL (≈ 0.259 µM); in assay [4] it was 0.13 µg/mL (≈ 0.135 µM); in assay [5], 0.25 µg/mL (≈ 0.259 µM). Further, the MIC in assay [6] stood at 0.25 µg/mL (≈ 0.259 µM).

`CCC(=O)OC1C(C)O[C@@H](O[C@@H]2C(C)O[C@@H](O[C@H]3[C@@H](CC=O)C[C@@H](C)[C@@H](O)CN(C)CCC(/C=C/Cc4ccnc5ccccc45)NC(=O)C[C@@H](OC(=O)CC)[C@@H]3OC)C(O)C2N(C)C)CC1(C)O` (some centres unmarked) [Example 28]: the MIC in assay [1] was found to be 8 µg/mL (≈ 8.24 µM); in assay [7] it was 1 µg/mL (≈ 1.03 µM); in assay [2], 0.25 µg/mL (≈ 0.257 µM); in assay [3], 0.5 µg/mL (≈ 0.515 µM); in assay [4], 0.03 µg/mL (≈ 0.0309 µM); in assay [5] it was 0.13 µg/mL (≈ 0.134 µM). Also, in assay [6], the MIC stood at 2 µg/mL (≈ 2.06 µM).

With `CCC(=O)OC1C(C)O[C@@H](O[C@@H]2C(C)O[C@@H](O[C@H]3[C@@H](CC=O)C[C@@H](C)[C@@H](O)CN(C)CCC(CCCc4cnc5ccccc5c4)NC(=O)C[C@@H](OC(=O)CC)[C@@H]3OC)C(O)C2N(C)C)CC1(C)O` (some centres unmarked) [Example 35], the MIC in assay [1] stood at 8 µg/mL (≈ 8.22 µM); in assay [7] it was 2 µg/mL (≈ 2.06 µM); in assay [2] it was 0.25 µg/mL (≈ 0.257 µM); in assay [3], 1 µg/mL (≈ 1.03 µM); in assay [4], 0.03 µg/mL (≈ 0.0308 µM); in assay [5], 0.06 µg/mL (≈ 0.0617 µM). For the same compound, the MIC in assay [6] worked out at 4 µg/mL (≈ 4.11 µM).

On to `CCC(=O)O[C@@H]1CC(=O)O[C@H](C)CCCN(CCCCc2ccccc2)C[C@H](O)[C@H](C)C[C@H](CC=O)[C@H](O[C@@H]2OC(C)[C@@H](O[C@H]3CC(C)(OC(C)=O)[C@@H](OC(=O)CC)C(C)O3)C(N(C)C)C2O)[C@H]1OC` (some centres unmarked) [Example 43], for which the MIC was 1 µg/mL (≈ 1.01 µM) in assay [1]; 0.5 µg/mL (≈ 0.503 µM) in assay [7]; 0.13 µg/mL (≈ 0.131 µM) in assay [2]; 0.25 µg/mL (≈ 0.252 µM) in assay [3]; 0.06 µg/mL (≈ 0.0604 µM) in assay [4]; 0.06 µg/mL (≈ 0.0604 µM) in assay [5]. The MIC in assay [6] came out at 0.5 µg/mL (≈ 0.503 µM).

Consider `CCC(=O)O[C@@H]1CC(=O)O[C@@H](C/C=C/c2cnc3ccccc3c2)CCCN(C)C[C@H](O)[C@H](C)C[C@H](CC=O)[C@H](O[C@@H]2OC(C)[C@@H](O[C@H]3CC(C)(O)[C@@H](OC(=O)CC)C(C)O3)C(N(C)C)C2O)[C@H]1OC` (some centres unmarked) [Example 53], for which the MIC came out at 8 µg/mL (≈ 8.11 µM) in assay [1]; 2 µg/mL (≈ 2.03 µM) in assay [7]; 0.06 µg/mL (≈ 0.0608 µM) in assay [2]; 0.5 µg/mL (≈ 0.507 µM) in assay [3]; 0.015 µg/mL (≈ 0.0152 µM) in assay [4]; 0.03 µg/mL (≈ 0.0304 µM) in assay [5]. Besides, the MIC in assay [6] was determined as 1 µg/mL (≈ 1.01 µM).

`CCC(=O)O[C@@H]1CC(=O)OCCC(/C=C/Cc2ccnc3ccccc23)CN(C)C[C@H](O)[C@H](C)C[C@H](CC=O)[C@H](O[C@@H]2OC(C)[C@@H](O)C(N(C)C)C2O)[C@H]1OC` (some centres unmarked) [Example 55]: the MIC in assay [1] is more than 128 µg/mL; in assay [2], 0.06 µg/mL (≈ 0.0763 µM); in assay [3], 0.5 µg/mL (≈ 0.636 µM); in assay [4], 0.03 µg/mL (≈ 0.0382 µM); in assay [5], 0.03 µg/mL (≈ 0.0382 µM); in assay [6], 0.25 µg/mL (≈ 0.318 µM).

These data come from patent US7365174B2, “Azalide and azalactam derivatives and method for producing the same” (Meiji Seika Kaisha, Ltd., priority 2003, dated 2008).
